Values joined by “and” are separate entries in the source; they are usually repeats but may differ in a detail not shown here. Equal values may be shown once.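 48-hour exposure; five concentrations; linearly interpolated endpoints. GI50 is the concentration that inhibits growth by half. TGI is the concentration that stops growth completely.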 *1 amine or outer side, *2 acyl side, *3 side chain or, on linkers, in order; H or OH if unused. Where a SMILES comes first, the peptide text is derived from it. Bridges are numbered along the chain shown (N, C = ends). Roman numbers before positions name the chains, in order. [ ]: non-standard residue; d: D form. Actinocin(9to1) = Cc1c2oc3c(C)ccc(C(=O)[*:1])c3nc-2c(C(=O)[*:2])c(N)c1=O; NMeT = CN[CH](C(=O)O)[CH](C)O; Sar = CNCC(=O)O
Tests used:
Assay in all cases: NCI anticancer screen, dose series, 48 h
HCT-15 colon = system: HCT-15 colon
PC-3 prostate = system: PC-3 prostate
UACC-62 melanoma = system: UACC-62 melanoma
LOX IMVI melanoma = system: LOX IMVI melanoma
K-562 leukemia = system: K-562 leukemia
SNB-75 CNS = system: SNB-75 CNS
SF-539 CNS = system: SF-539 CNS
SK-MEL-5 melanoma = system: SK-MEL-5 melanoma
SK-MEL-28 melanoma = system: SK-MEL-28 melanoma
CAKI-1 renal = system: CAKI-1 renal

Compound | GI50 (HCT-15 colon) | TGI (HCT-15 colon) [µM] | GI50 (PC-3 prostate) | TGI (PC-3 prostate) | GI50 (UACC-62 melanoma) [µM] | TGI (UACC-62 melanoma) [µM] | GI50 (LOX IMVI melanoma) [µM] | TGI (LOX IMVI melanoma) | GI50 (K-562 leukemia) | TGI (K-562 leukemia) | GI50 (SNB-75 CNS) | TGI (SNB-75 CNS) | GI50 (SF-539 CNS) [µM] | TGI (SF-539 CNS) | GI50 (SK-MEL-5 melanoma) | TGI (SK-MEL-5 melanoma) | GI50 (SK-MEL-28 melanoma) [µM] | TGI (SK-MEL-28 melanoma) | GI50 (CAKI-1 renal) | TGI (CAKI-1 renal)
COC(=O)CC[C@]1(C)O[C@H]2[C@H]([C@@H](C)CCCC(C)=O)OC(=O)[C@@H]2C[C@H]1O | > 100 µM | > 100 | > 100 µM | > 100 µM | > 100 | > 100 | > 100 | > 100 µM | > 100 µM | > 100 µM | > 100 µM | > 100 µM | 84.9 | > 100 µM | > 100 µM | > 100 µM | > 100 | > 100 µM | 32 µM | > 100 µM
Cc1ccc(Cc2cnc(NC(=O)/C=C/c3cccc(C)c3)s2)cc1 | 0.049 µM | > 96 | 0.154 µM | > 100 µM | 0.0645 | 25.3 | 0.124 | 7.4 µM | 0.0469 µM | > 100 µM | 0.104 µM | 0.845 µM | 0.149 | 0.9 µM | 0.404 µM | > 100 µM | 1.35 | > 100 µM | 0.0663 µM | 11 µM
Cc1nc2sc(C(=O)Nc3cccc4ccccc34)c(N)c2cc1C(O)c1ccccc1 (stereo not given) | 0.0388 µM | 11.1 | 0.118 µM | > 38 µM | 0.0747 | 12.3 | 0.0568 | 6.67 µM | 0.0442 µM | > 39.6 µM | 0.0241 µM | 11.7 µM | 0.0341 | 0.29 µM | 0.0993 µM | 0.717 µM | 1.14 | 24.2 µM | 0.0583 µM | 12 µM
O=C(O)c1ccc(Oc2nccc(-c3c(-c4ccc(F)cc4)ncn3C3CCNCC3)n2)cc1 | > 25 µM | > 25 | > 25 µM | > 25 µM | > 25 | > 25 | > 25 | > 25 µM | > 25 µM | > 25 µM | > 25 µM | > 25 µM | > 25 | > 25 µM | > 25 µM | > 25 µM | > 25 | > 25 µM | > 25 µM | > 25 µM
C=C1C(=O)O[C@H]2[C@H]1CC/C(COC(=O)c1cc3ccccc3o1)=C\CC[C@@]1(C)O[C@@H]21 | 1.07 µM | 2.86 | 1.76 µM | 3.72 µM | 1.68 | 3.23 | 1.42 | 2.81 µM | 1.15 µM | 7.43 µM | 1.34 µM | 3.18 µM | 1.45 | 2.84 µM | 1.52 µM | 2.89 µM | 1.75 | 3.59 µM |  | 
C=C1C(C2(C)C(OC(C)=O)CC(=O)OC(C)(COC(C)=O)C2CC(=O)OC)C(OC=O)C(OC(=O)C(O)C(C)CC)C2(C)C(c3ccoc3)CC(=O)C12O (stereo not given) |  | > 100 |  | > 100 µM |  | > 100 |  | > 100 µM |  | > 31.6 µM |  | > 100 µM |  | > 31.6 µM |  | > 100 µM |  | > 100 µM |  | 11.7 µM
COc1ccc(/C(COc2ccc3c(=O)c(-c4ccccc4)coc3c2)=N\O)cc1 | 0.349 µM | 12.9 | 6.53 µM | 58.7 µM | 0.662 | 21.2 | 4.73 | > 45.9 µM | 0.0674 µM | > 100 µM | 14.5 µM | > 70.9 µM | 1.6 | 5.32 µM | 0.394 µM | 4.74 µM | 10.2 | > 90.9 µM | 1.46 µM | 7.47 µM
CNC/C(Cl)=N/S(=O)(=O)c1ccc(C)cc1 |  | > 100 |  | 22.8 µM |  | 21.9 |  | 27.3 µM |  | > 100 µM |  | 18.4 µM |  | 39.7 µM |  | 36.7 µM |  | > 100 µM |  | 26.2 µM
COc1cc2ncn(-c3cc(O[C@@H](C)c4ccccc4Cl)c(C(N)=O)s3)c2cc1OC | 0.743 µM | > 25 | 2.55 µM | > 25 µM | 0.638 | > 25 | 1.05 | > 25 µM | 0.983 µM | > 25 µM | 3.86 µM | > 25 µM | 0.832 | > 25 µM | 0.247 µM | 5.26 µM | 3.84 | > 25 µM | 6.8 µM | > 25 µM
O=C(O)CCCSc1ccccc1 |  | > 100 |  | > 100 µM |  | > 100 |  | > 100 µM |  | > 100 µM |  | > 100 µM |  | > 100 µM |  | > 100 µM |  | > 100 µM |  | > 100 µM
COc1cccc(/C=C/[N+](=O)[O-])c1 | 2.17 µM | 6.18 | 4.58 µM | 17 µM | 3.29 | 12.8 | 1.66 | 3.12 µM | 2.92 µM | 11.5 µM | 12.4 µM | 27.9 µM | 2.64 | 8.72 µM | 10.5 µM | 22.5 µM | 2.39 | 6.28 µM |  | 
Cc1cccc(C)c1NC(=O)C(=O)CC(=O)/C=C/c1ccccc1 |  | > 100 |  | > 100 µM |  | > 100 |  | > 100 µM |  | > 100 µM |  | > 100 µM |  | > 100 µM |  | > 100 µM |  | > 100 µM |  | > 100 µM
Cc1c2oc3c(C)ccc(C(=O)NC4C(=O)NC(C(C)C)C(=O)N5CCCC5C(=O)N(C)CC(=O)N(C)C(C(C)O)C(=O)OC4C)c3nc-2c(C(=O)NC2C(=O)NC(C(C)C)C(=O)N3CCCC3C(=O)N(C)CC(=O)N(C)C(C(C)O)C(=O)OC2C)c(N)c1=O (stereo not given) (I: TVP[Sar][NMeT] / II: TVP[Sar][NMeT]; ester I:1-I:C, II:1-II:C; linker I:N-II:N via Actinocin(9to1); configuration not given here) | 14.1 µM and > 1 µM | > 100 | 2.99 µM and > 1 µM | > 100 µM |  | 1.54 |  | 7.84 µM and > 1 µM |  | > 36.5 µM |  | 3.43 µM and 0.839 µM |  | 18 µM and > 1 µM | 0.473 µM and > 1 µM | 2.9 µM and > 1 µM |  | 4.96 µM and > 1 µM | 3.64 µM and > 1 µM | 13.1 µM and > 1 µM
NC[C@H]1Nc2ccccc2[C@@H](O)C1O (stereo not given in full) |  | > 100 |  | > 100 µM |  | > 100 |  | > 100 µM |  | > 100 µM |  | > 100 µM |  | > 100 µM |  | > 100 µM |  | > 100 µM |  | > 100 µM
C[C@@H](O)[C@H](NC(=O)N[C@@H](CC(N)=O)c1nc([C@@H](N)CO)no1)C(=O)O | > 100 µM | > 100 | > 100 µM | > 100 µM | > 100 | > 100 | > 100 | > 100 µM |  |  | > 100 µM | > 100 µM | > 100 | > 100 µM | > 100 µM | > 100 µM | > 100 | > 100 µM | > 100 µM | > 100 µM
Cc1cc(=O)oc2c(C)c(O)ccc12 |  | > 100 |  | > 100 µM |  | > 100 |  | > 100 µM |  | > 100 µM |  | > 100 µM |  | > 100 µM |  | > 100 µM |  | > 100 µM |  | > 100 µM
O=C1c2ccccc2-c2oc(=O)c3ccccc3c21 |  | > 100 |  | > 100 µM |  | > 100 |  | > 100 µM |  |  |  | > 100 µM |  | > 100 µM |  | > 100 µM |  | > 100 µM |  | > 100 µM
COc1cc(Nc2nc3ccccc3nc2NS(=O)(=O)c2ccc(NC(=O)c3ccc(C)c(OC)c3)cc2)cc(OC)c1 | 4.97 µM and 19.9 µM and 2 µM | > 100 |  | > 100 µM and 74.9 µM and > 6.71 µM |  |  |  | > 100 µM | 5.34 µM and 18.7 µM and > 5.29 µM | > 100 µM and 46.4 µM and > 10 µM | 1.39 µM and 1.51 µM and 0.302 µM | 13.3 µM and 20 µM and 2.75 µM |  | > 100 µM and 73.7 µM and > 6.59 µM | 4.19 µM and 11.4 µM and 1.71 µM | 38.4 µM and 28.7 µM and > 6.54 µM |  |  |  | > 100 µM and 73.8 µM and > 6.67 µM
Cc1cc(-c2nc3sccn3c2/C=N/N=C(N)N)c(C)s1 | 16.4 µM | 30 | 13.4 µM | 26.3 µM | 14.9 | 28.2 | 16.4 | 30.5 µM | 15.1 µM | 39.1 µM | 15 µM | 30.2 µM | 14.3 | 28.5 µM | 14.6 µM | 30 µM | 16.5 | 31.5 µM |  | 
C=C(NC(=O)C(=C)NC(=O)c1csc(C2=NC3c4csc(n4)C4NC(=O)c5csc(n5)C(C(C)(O)C(C)O)NC(=O)C5CSC(=N5)C(=CC)NC(=O)C(C(C)O)NC(=O)c5csc(n5)C3(CC2)NC(=O)C(C)NC(=O)C(=C)NC(=O)C(C)NC(=O)C(C(C)CC)NC2C=Cc3c(C(C)O)cc(nc3C2O)C(=O)OC4C)n1)C(N)=O (stereo not given) | 65.6 µM | > 100 | 77.5 µM | > 100 µM | 4.34 | 32.6 | 3.7 | > 100 µM |  |  | 8.12 µM | 83.7 µM | 4.62 | 42.9 µM | 4.69 µM | 19.8 µM | 7.09 | 24.5 µM | 14.6 µM | > 100 µM

— PubChem BioAssay (NCI)
